pIC50: −log10 of the molar value.

For experiment [1], the system named is MiaPaca-2 (expressing KRAS G12C mutant). Description: Proliferation Assay (Cell Viability Assay). The class given is cell-based. The settings on record: Homo sapiens, MIA PaCa-2; read-out: Proliferation in MiaPaca-2: IC50. The gist of the method: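 After 2–4 days' exposure at 37 °C, 5% CO2 to a single 10 μM final concentration or a dilution series (IC50), percent proliferation inhibition was derived from CellTiter 96 Aqueous One viability readings. The medium contained 0.3% DMSO and 10% FBS. KRAS G12C MiaPaca-2 cells were plated at 2000–5000/well the day before.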

The test system of the next experiment is TNF-alpha. The experiment can be described thus: TNF-alpha Quantification Assay (ELISA), LPS-stimulated RAW 264.7. The class given is cell-based. Particulars: Mus musculus, RAW264.7; at 10 μM; read-out: TNFα: % inh. On the technique in general: ELISA stands for enzyme-linked immunosorbent assay.
For experiment [2], the system named is Smad2/Smad3 phosphorylation. The experiment can be described thus: Phospho-Smad2/3 Inhibition Assay (western blot), Panc-1. The experiment is classed as cell-based, human. The settings on record: at 10 μM, Panc-1 pancreatic cancer cell line; starred symbols = activation. The essentials: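 Western blotting of lysates (15-50 μg protein) read phosphorylation of Smad2 Ser465/467 and Smad3 Ser423/425. Before lysis, Panc-1 cells got 1 h of 10 ng/ml TGF-b1 following 3 h compound exposure at 37° C (10 μM final, or serial dilutions for IC50, 0.3% DMSO) after overnight 0.5% FBS starvation.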
(In general: Immunoblotting shows a protein as a band on a membrane.)

In the case of `Cc1c(-c2ccn(C)n2)cn2nc(-c3nccn3C)nc(Nc3nccc(OCCN(C)C)n3)c12` [Compound 105, N-(4-(2-(Dimethylamino)ethoxy)pyrimidin-2-yl)-5-methyl-2-(1-methyl-1H-imidazol-2-yl)-6-(1-methyl-1H-pyrazol-3-yl)pyrrolo[2,1-f][1,2,4]triazin-4-amine], the pIC50 in experiment [1] is 6.00 to 6.29. The inhibition at 10 µM in the experiment with TNF-alpha came to 0%. The “% inh of Smad2/3 phosphorylation in Panc-1” value (“% inh” below) in experiment [2] is recorded as “A (A = 1-25% inhibition)”.

Consider `Cc1c(-c2ccn(C)n2)cn2nc(-c3nccn3C)nc(Nc3cc(OC(C)C)ccn3)c12` [Compound 136, N-(4-Isopropoxypyridin-2-yl)-5-methyl-2-(1-methyl-1H-imidazol-2-yl)-6-(1-methyl-1H-pyrazol-3-yl)pyrrolo[2,1-f][1,2,4]triazin-4-amine], for which, in experiment [1], the pIC50 was over 6.82. Also, the inhibition at 10 µM in the experiment on TNF-alpha lay in the range of 1 to 24%. Moreover, in experiment [2], the “% inh” value is given as “A (A = 1-25% inhibition)”.

On to `Cc1c(-c2ccn(C)n2)cn2nc(-c3nccn3C)nc(Nc3nnco3)c12.Cl` [Compound 119, N-(5-Methyl-2-(1-methyl-1H-imidazol-2-yl)-6-(1-methyl-1H-pyrazol-3-yl)pyrrolo[2,1-f][1,2,4]triazin-4-yl)-1,3,4-oxadiazol-2-amine hydrochloride salt], for which the pIC50 in experiment [1] was 6.00 to 6.29. In the experiment on TNF-alpha, the inhibition at 10 µM lay within 25 to 49%. The “% inh” value in experiment [2] was “B* (B* = 26-45% activation)”.

On to `CO[C@H]1C[C@H](Nc2nc(-c3nccn3C)nn3cc(-c4ccncc4)c(C)c23)C1` [Compound 159, N-((1r,3r)-3-Methoxycyclobutyl)-5-methyl-2-(1-methyl-1H-imidazol-2-yl)-6-(pyridin-4-yl)pyrrolo[2,1-f][1,2,4]triazin-4-amine], for which, in experiment [1], the pIC50 was under 6.00. Besides, the inhibition at 10 µM in the experiment on TNF-alpha is 0%. Also, the “% inh” value in experiment [2] is reported as “C (C = 46-75% inhibition)”.

Consider `Cc1c(-c2ccn(C)n2)cn2nc(-c3nccn3C)nc(Nc3cc(OC(F)(F)F)ccn3)c12` [Compound 127, 5-Methyl-2-(1-methyl-1H-imidazol-2-yl)-6-(1-methyl-1H-pyrazol-3-yl)-N-(4-(trifluoromethoxy)pyridin-2-yl)pyrrolo[2,1-f][1,2,4]triazin-4-amine], for which, in experiment [1], the pIC50 was over 6.82. In addition, the inhibition at 10 µM in the experiment on TNF-alpha stood at 0%. Besides, the “% inh” value in experiment [2] is listed as “A (A = 1-25% inhibition)”.

As to `Cc1c(-c2ccn(C3CC3)n2)cn2nc(-c3nccn3C)nc(Nc3cc(N(C)C)ccn3)c12` [Compound 145, N^2-(6-(1-Cyclopropyl-1H-pyrazol-3-yl)-5-methyl-2-(1-methyl-1H-imidazol-2-yl)pyrrolo[2,1-f][1,2,4]triazin-4-yl)-N^4,N^4-dimethylpyridine-2,4-diamine], in experiment [1], the pIC50 was over 6.82. In the experiment on TNF-alpha, the inhibition at 10 µM fell in the range of 1 to 24%. The “% inh” value in experiment [2] is reported as “B* (B* = 26-45% activation)”.

(Values after patent US12459951B2, “Compounds that interact with RAS superfamily proteins for treatment of cancers, inflammatory diseases, rasopathies, and fibrotic disease” (SHY Therapeutics, LLC, priority 2022, dated 2025).)
